Read-outs that look alike come from different tables or passages of the source.
Assays:
Assay type in all cases: biochemical
kinases [1] = molecular target: kinases (Homo sapiens, UniProt O43318); conditions: MAP3K7/MAP3K7IP1 Lantha SP; Test Conc(μM) 1
kinases [2] = molecular target: kinases (Homo sapiens, UniProt O60331); conditions: Test Conc(μM):ATP Conc(μM) 1:10
kinases [3] = molecular target: kinases (Homo sapiens, UniProt P08922); conditions: ROS1 FRET-Z-Lyte SP; Test Conc(μM):ATP Conc(μM) 1:50
kinases [4] = molecular target: kinases (Homo sapiens, UniProt P24723); conditions: PRKCH (PKC eta) Z-Lyte SP; Test Conc(μM):ATP Conc(μM) 1:25
kinases [5] = molecular target: kinases (Homo sapiens, UniProt P25098); conditions: ADRBK1 (GRK2) FRET-Z-Lyte SP; Test Conc(μM):ATP Conc(μM) 1:10
kinases [6] = molecular target: kinases (Homo sapiens, UniProt P30530); conditions: AXL FRET-Z-Lyte SP; Test Conc(μM):ATP Conc(μM) 1:75
kinases [7] = molecular target: kinases (Homo sapiens, UniProt P32298); conditions: GRK4 FRET-Z-Lyte SP; Test Conc(μM):ATP Conc(μM) 1:10
Sequence of kinases (Homo sapiens, UniProt P32298) (P32298 whole entry): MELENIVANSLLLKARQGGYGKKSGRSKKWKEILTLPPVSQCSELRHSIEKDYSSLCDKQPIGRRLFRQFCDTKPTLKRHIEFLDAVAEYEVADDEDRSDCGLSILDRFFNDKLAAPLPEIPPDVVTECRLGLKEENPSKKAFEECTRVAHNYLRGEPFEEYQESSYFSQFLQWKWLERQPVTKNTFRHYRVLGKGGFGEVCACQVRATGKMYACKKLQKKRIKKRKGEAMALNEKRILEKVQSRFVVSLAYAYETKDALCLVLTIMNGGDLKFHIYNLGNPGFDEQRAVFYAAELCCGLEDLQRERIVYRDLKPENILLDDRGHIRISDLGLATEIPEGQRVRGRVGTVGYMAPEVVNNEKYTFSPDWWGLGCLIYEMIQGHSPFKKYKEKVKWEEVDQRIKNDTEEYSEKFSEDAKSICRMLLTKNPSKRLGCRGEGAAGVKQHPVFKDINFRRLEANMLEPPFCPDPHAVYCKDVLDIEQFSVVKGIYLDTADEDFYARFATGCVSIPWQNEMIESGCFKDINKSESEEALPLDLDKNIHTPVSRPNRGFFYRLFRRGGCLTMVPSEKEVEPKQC

kinases [8] = molecular target: kinases (Homo sapiens, UniProt P34947); conditions: GRK5 *Mn* FRET-Z-Lyte SP; Test Conc(μM):ATP Conc(μM) 1:5
kinases [9] = molecular target: kinases (Homo sapiens, UniProt P36894); conditions: BMPR1A (ALK3) FRET-Lantha SP; Test Conc(μM) 1
kinases [10] = molecular target: kinases (Homo sapiens, UniProt P42338)
Sequence of kinases (Homo sapiens, UniProt P42338) (P42338 whole entry): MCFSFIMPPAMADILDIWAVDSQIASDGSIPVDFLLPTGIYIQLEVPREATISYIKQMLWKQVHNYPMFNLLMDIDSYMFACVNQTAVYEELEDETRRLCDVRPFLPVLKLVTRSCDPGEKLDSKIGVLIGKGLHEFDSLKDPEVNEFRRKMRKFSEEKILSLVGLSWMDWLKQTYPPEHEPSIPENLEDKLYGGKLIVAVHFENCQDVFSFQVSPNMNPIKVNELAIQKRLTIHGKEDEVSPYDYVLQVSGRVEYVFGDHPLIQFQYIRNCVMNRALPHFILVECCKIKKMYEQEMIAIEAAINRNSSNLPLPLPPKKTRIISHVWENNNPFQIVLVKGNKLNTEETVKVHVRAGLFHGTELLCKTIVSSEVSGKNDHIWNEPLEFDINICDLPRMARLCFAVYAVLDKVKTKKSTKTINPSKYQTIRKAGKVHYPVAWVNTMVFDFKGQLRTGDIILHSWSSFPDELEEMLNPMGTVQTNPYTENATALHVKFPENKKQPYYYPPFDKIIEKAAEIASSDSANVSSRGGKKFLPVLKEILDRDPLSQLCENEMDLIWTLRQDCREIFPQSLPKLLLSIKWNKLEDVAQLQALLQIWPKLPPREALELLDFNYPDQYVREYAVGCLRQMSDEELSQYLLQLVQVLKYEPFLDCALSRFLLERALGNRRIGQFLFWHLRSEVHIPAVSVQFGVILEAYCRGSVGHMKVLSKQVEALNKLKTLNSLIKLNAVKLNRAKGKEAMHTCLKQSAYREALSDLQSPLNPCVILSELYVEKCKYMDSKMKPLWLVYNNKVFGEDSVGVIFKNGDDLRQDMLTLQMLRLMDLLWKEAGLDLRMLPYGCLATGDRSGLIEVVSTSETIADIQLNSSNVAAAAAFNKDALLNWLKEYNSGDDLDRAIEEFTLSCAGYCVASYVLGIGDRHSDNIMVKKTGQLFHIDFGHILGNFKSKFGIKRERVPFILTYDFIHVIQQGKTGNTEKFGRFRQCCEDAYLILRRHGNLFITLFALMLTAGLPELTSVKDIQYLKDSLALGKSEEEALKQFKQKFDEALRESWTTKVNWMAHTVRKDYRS

kinases [11] = molecular target: kinases (Homo sapiens, UniProt P42679); conditions: MATK (HYL) FRET-Z-Lyte SP
Sequence of kinases (Homo sapiens, UniProt P42679) (P42679 whole entry): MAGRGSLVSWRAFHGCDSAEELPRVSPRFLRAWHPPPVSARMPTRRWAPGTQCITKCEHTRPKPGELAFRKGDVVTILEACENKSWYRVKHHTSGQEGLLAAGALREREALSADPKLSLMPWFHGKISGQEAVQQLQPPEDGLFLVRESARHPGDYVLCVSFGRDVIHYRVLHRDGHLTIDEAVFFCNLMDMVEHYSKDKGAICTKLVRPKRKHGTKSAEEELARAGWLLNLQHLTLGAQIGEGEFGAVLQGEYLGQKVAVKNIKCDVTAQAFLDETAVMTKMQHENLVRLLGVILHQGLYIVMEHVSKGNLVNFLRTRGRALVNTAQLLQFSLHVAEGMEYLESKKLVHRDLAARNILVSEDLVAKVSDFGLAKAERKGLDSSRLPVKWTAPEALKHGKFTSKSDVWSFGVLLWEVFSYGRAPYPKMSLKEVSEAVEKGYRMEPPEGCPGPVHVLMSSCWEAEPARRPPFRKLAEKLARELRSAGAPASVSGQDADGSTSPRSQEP

kinases [12] = molecular target: kinases (Homo sapiens, UniProt P49840); conditions: GSK3A FRET-Z-Lyte SP; Test Conc(μM):ATP Conc(μM) 1:10
kinases [13] = molecular target: kinases (Homo sapiens, UniProt P53671); conditions: LIMK2 FRET-Lantha SP; Test Conc(μM) 1
kinases [14] = molecular target: kinases (Homo sapiens, UniProt P54762); conditions: EPHB1 FRET-Z-Lyte SP; Test Conc(μM):ATP Conc(μM) 1:50
kinases [15] = molecular target: kinases (Homo sapiens, UniProt Q07002); conditions: CDK18/cyclin Y FRET-Z-Lyte SP; Test Conc(μM):ATP Conc(μM) 1:75
kinases [16] = molecular target: kinases (Homo sapiens, UniProt Q12851); conditions: MAP4K2 (GCK) FRET-Z-Lyte SP; Test Conc(μM):ATP Conc(μM) 1:100
Sequence of kinases (Homo sapiens, UniProt Q12851) (Q12851 whole entry): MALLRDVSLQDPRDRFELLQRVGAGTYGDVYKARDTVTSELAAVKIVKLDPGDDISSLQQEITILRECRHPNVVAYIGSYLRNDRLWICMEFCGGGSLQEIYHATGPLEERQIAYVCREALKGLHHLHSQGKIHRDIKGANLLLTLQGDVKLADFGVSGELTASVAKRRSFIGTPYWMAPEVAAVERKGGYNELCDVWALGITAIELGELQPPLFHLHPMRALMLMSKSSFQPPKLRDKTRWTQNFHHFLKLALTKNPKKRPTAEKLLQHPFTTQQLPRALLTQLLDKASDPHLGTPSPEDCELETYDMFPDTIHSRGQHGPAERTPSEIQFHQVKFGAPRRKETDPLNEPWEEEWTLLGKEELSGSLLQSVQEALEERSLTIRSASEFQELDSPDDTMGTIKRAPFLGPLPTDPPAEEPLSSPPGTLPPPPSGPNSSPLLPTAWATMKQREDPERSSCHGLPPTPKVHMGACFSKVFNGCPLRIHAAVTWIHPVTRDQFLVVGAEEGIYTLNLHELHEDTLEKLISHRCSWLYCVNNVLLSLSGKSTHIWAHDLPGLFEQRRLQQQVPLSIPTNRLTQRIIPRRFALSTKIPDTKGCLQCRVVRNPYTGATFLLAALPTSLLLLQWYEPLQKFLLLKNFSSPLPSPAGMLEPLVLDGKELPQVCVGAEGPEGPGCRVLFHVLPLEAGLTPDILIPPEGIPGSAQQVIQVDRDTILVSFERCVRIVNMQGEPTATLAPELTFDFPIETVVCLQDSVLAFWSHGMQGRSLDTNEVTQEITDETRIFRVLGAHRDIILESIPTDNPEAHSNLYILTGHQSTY

kinases [17] = molecular target: kinases (Homo sapiens, UniProt Q13882); conditions: PTK6 (Brk) *Mn* FRET-Z-Lyte SP; Test Conc(μM):ATP Conc(μM) 1:75
kinases [18] = molecular target: kinases (Homo sapiens, UniProt Q14004); conditions: Test Conc(μM) 1
kinases [19] = molecular target: kinases (Homo sapiens, UniProt Q15375); conditions: EPHA7 FRET-Lantha SP; Test Conc(μM) 1
kinases [20] = molecular target: kinases (Homo sapiens, UniProt Q15759); conditions: MAPK11 (p38 beta) Z-Lyte SP; Test Conc(μM):ATP Conc(μM) 1:50
kinases [21] = molecular target: kinases (Homo sapiens, UniProt Q16513); conditions: PKN2 (PRK2) FRET-lantha SP; Test Conc(μM) 1
kinases [22] = molecular target: kinases (Homo sapiens, UniProt Q56UN5); conditions: MAP3K19 (YSK4) FRET-Z-Lyte SP; Test Conc(μM):ATP Conc(μM) 1:5
kinases [23] = molecular target: kinases (Homo sapiens, UniProt Q86YV6); conditions: MYLK4 FRET-Lantha SP; Test Conc(μM) 1
kinases [24] = molecular target: kinases (Homo sapiens, UniProt Q8NI60); conditions: ADCK3 FRET-Lantha SP; Test Conc(μM) 1
kinases [25] = molecular target: kinases (Homo sapiens, UniProt Q9BWU1); conditions: Test Conc(μM) 1
Sequence of kinases (Homo sapiens, UniProt Q9BWU1) (Q9BWU1 whole entry): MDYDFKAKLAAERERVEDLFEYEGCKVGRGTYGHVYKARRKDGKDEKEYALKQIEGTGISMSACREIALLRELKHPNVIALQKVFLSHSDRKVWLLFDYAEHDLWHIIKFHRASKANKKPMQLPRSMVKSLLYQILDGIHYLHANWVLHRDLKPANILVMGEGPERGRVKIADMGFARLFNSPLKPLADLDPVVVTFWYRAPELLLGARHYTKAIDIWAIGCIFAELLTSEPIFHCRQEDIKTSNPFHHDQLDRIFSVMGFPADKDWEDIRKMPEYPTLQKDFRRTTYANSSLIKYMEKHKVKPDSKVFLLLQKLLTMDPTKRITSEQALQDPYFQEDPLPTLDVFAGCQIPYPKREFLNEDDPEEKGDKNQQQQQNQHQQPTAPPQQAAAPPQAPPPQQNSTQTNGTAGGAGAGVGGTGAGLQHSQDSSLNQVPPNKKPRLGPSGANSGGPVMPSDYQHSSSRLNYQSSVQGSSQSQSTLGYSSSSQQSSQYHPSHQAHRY

kinases [26] = molecular target: kinases (Homo sapiens, UniProt Q9P289); conditions: MST4 FRET-Z-Lyte SP; Test Conc(μM):ATP Conc(μM) 1:25
kinases [27] = molecular target: kinases (Homo sapiens, UniProt Q9UEW8); conditions: STK39 (STLK3) FRET-Lantha SP; Test Conc(μM) 1
kinases [28] = molecular target: kinases (Homo sapiens, UniProt Q9UQB9); conditions: AURKC (Aurora C) Z-Lyte SP; Test Conc(μM):ATP Conc(μM) 1:25
[29] = PIK3CB FRET-Adapta SP, Test Conc(μM):ATP Conc(μM) 1:150
[30] = PIK3CB/PIK3R2 FRET-Adapta SP, Test Conc(μM):ATP Conc(μM) 1:10

Sequence of kinases (Homo sapiens, UniProt O60331) (O60331 whole entry): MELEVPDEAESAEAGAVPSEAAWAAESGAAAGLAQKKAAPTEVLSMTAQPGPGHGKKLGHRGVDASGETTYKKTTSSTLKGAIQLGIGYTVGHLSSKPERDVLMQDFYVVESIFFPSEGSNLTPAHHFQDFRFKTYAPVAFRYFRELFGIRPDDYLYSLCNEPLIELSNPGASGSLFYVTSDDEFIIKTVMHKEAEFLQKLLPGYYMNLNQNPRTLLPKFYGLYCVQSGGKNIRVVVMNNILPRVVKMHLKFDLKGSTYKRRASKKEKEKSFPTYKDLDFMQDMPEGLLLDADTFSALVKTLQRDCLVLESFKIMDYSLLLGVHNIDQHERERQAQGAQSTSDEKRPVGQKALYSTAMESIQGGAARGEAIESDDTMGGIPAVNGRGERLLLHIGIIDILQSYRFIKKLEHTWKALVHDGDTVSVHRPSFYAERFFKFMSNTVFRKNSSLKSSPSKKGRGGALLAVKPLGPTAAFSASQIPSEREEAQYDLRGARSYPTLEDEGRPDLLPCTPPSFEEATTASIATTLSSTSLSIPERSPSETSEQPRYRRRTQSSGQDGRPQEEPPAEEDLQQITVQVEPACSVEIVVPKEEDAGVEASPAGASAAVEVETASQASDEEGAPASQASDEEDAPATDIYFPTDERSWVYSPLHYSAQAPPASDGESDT
Sequence of kinases (Homo sapiens, UniProt O43318) (O43318 whole entry): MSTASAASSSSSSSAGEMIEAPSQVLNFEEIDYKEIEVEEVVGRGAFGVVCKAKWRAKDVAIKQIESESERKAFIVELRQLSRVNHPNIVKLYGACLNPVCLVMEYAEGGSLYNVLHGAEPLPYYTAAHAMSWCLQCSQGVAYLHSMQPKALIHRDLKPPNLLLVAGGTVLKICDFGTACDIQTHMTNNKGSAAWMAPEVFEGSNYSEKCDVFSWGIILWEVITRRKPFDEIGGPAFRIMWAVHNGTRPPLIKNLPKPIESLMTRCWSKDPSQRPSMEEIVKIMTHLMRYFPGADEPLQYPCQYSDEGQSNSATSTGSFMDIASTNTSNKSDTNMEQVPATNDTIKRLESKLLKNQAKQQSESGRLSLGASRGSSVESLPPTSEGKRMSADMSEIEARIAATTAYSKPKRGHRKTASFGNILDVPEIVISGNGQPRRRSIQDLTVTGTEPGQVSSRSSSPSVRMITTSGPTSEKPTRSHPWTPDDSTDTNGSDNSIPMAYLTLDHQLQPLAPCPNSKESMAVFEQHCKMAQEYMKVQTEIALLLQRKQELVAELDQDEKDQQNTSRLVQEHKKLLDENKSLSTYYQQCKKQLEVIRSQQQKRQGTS

Structure (SMILES) | Mean Inhib (%) (kinases [1]) | Mean Inhib (%) (kinases [3]) | Mean Inhib (%) (kinases [4]) | Mean Inhib (%) (kinases [5]) | Mean Inhib (%) (kinases [6]) | Mean Inhib (%) (kinases [7]) | Mean Inhib (%) (kinases [8]) | Mean Inhib (%) (kinases [9]) | Mean Inhib (%) (kinases [10]; [29]) | Mean Inhib (%) (kinases [10]; [30]) | Mean Inhib (%) (kinases [12]) | Mean Inhib (%) (kinases [13]) | Mean Inhib (%) (kinases [14]) | Mean Inhib (%) (kinases [15]) | Mean Inhib (%) (kinases [16]) | Mean Inhib (%) (kinases [17]) | Mean Inhib (%) (kinases [19]) | Mean Inhib (%) (kinases [20]) | Mean Inhib (%) (kinases [21]) | Mean Inhib (%) (kinases [22]) | other results
Cc1ccc(NC(=O)c2ccnc(N3CCOCC3)c2)cc1Nc1ccnc(N2CC(C)OC(C)C2)n1 (stereo not drawn) [compound 3] | 3.6% | 10.0% | 9.3% | 8.4% | −2.7% | 0.0% | 4.7% | −1.5% | −5.2% | 8.0% | 9.4% | 0.5% | 3.5% | 2.7% | 13.1% | 3.5% | 6.5% | 47.6% | −2.6% | −1.6% | Mean Inhib (%) (kinases [2]; PIP5K1C FRET-Adapta SP): −4.5%; Mean Inhib (%) (kinases [11]; Test Conc(μM):ATP Conc(μM) 1:300): 3.2%; Mean Inhib (%) (kinases [18]; CDK13 Cyclin K FRET-Lantha SP): 5.4%; Mean Inhib (%) (kinases [23]): 5.1%; Mean Inhib (%) (kinases [24]): −1.6%; Mean Inhib (%) (kinases [25]; CDK11(Inactive) FRET-Lantha SP): −0.2%; Mean Inhib (%) (kinases [25]; CDK11 Cyclin C FRET-Lantha SP): 2.1%; Mean Inhib (%) (kinases [26]): 16.7%; Mean Inhib (%) (kinases [27]): 6.0%; Mean Inhib (%) (kinases [28]): 9.3%
Cc1cc(Oc2ccnc(Nc3ccc(S(N)(=O)=O)cc3)c2)c(-c2ccccn2)nc1C [compound 65] | 8.1% | 8.9% | 0.8% | 1.0% | 1.1% | 16.3% | 4.6% | 83.6% | −2.3% | −4.7% | 3.2% | 22.2% | 47.1% | 1.2% | 18.4% | 32.3% | 10.4% | 21.2% | 5.1% | −3.1% | PIP5K1C FRET-Adapta SP Mean Mean Inhib (%) (kinases [2]; PIP5K1C): 3.2%; Mean Inhib (%) (kinases [11]; Test Conc(μM):ATP Conc(μM) 0.25): 1.8%; CDK13 Cyclin K FRET-Lantha SP Mean Mean Inhib (%) (kinases [18]; CDK13 Cyclin K): 4.1%; Mean Inhib (%) (kinases [23]): 14.6%; Mean Inhib (%) (kinases [24]): −3.0%; Mean Inhib (%) (kinases [25]; CDK11(Inactive) FRET-Lantha SP): 1.0%; CDK11 Cyclin C FRET-Lantha SP Mean Mean Inhib (%) (kinases [25]; CDK11 Cyclin C): 3.8%; Mean Inhib (%) (kinases [26]): −9.9%; Mean Inhib (%) (kinases [27]): 5.1%; Mean Inhib (%) (kinases [28]): 4.2%
